We go through 12 compounds from ChEMBL document CHEMBL3393038, “Prenylated flavonoids and resveratrol derivatives isolated from Artocarpus communis with the ability to overcome TRAIL resistance” (2015).

Each structure is given as a SMILES string. The source made the active and inactive calls. No cut-off for these calls is given here.

The subject of test [1] is AGS. In words: Induction of apoptosis in TRAIL-resistant human AGS cells assessed as decrease in cell viability at 2 uM after 24 hrs in presence of TRAIL (reference value: 9%). The format is functional.
Test [2] concerns AGS. Briefly: Induction of apoptosis in TRAIL-resistant human AGS cells assessed as decrease in cell viability at 5 uM after 24 hrs in presence of TRAIL (reference value: 9%). The class given is functional.
For test [3], the system named is AGS. Briefly: Induction of apoptosis in TRAIL-resistant human AGS cells assessed as decrease in cell viability at 20 uM after 24 hrs in presence of TRAIL (reference value: 9%). The format is functional.
For test [4], the system named is AGS. In words: Induction of apoptosis in TRAIL-resistant human AGS cells assessed as decrease in cell viability at 40 uM after 24 hrs in presence of TRAIL (reference value: 9%). The class given is functional.
Test [5] concerns AGS. Briefly: Induction of apoptosis in TRAIL-resistant human AGS cells assessed as decrease in cell viability at 7.5 uM after 24 hrs in presence of TRAIL (reference value: 9%). The class given is functional.
Test [6] concerns AGS. In words: Induction of apoptosis in TRAIL-resistant human AGS cells assessed as decrease in cell viability at 10 uM after 24 hrs in presence of TRAIL (reference value: 9%). The format is functional.
Test [7] concerns AGS. Briefly: Induction of apoptosis in TRAIL-resistant human AGS cells assessed as increase in p53 protein level at 3 uM after 6 hrs by Western blotting analysis. The class given is functional, cell-based. A general note: Immunoblotting shows a protein as a band on a membrane.
Test [8] relates to AGS. In words: Induction of apoptosis in TRAIL-resistant human AGS cells assessed as population of apoptotic cells after 6 hrs by annexin-V-FLOUS/ propidium iodide staining based flow cytometry in presence of pan-caspase inhibitor z-VAD-FMK. The format is functional. A general note: A flow cytometer gives signals particle by particle.
Test [9] relates to AGS. In words: Induction of apoptosis in TRAIL-resistant human AGS cells assessed as increase in death receptor 5 protein level at 3 uM after 6 hrs by Western blotting analysis. The format is functional.
Test [10] deals with AGS. In words: Induction of apoptosis in TRAIL-resistant human AGS cells assessed as population of apoptotic cells after 6 hrs by annexin-V-FLOUS/ propidium iodide staining based flow cytometry in presence of TRAIL. The class given is functional.
Test [11] deals with AGS. Briefly: Induction of apoptosis in TRAIL-resistant human AGS cells assessed as decrease in cell viability at 3 uM after 24 hrs in presence of TRAIL (reference value: 9%). The class given is functional.
Test [12] has as its system AGS. Briefly: Induction of apoptosis in TRAIL-resistant human AGS cells assessed as fold increase in caspase 3/7 at 5 uM after 24 hrs by Caspase-Glo 3/7 assay kit. The format is functional.
The test system of test [13] is AGS. In words: Induction of mitochondrial membrane depolarization in human AGS cells assessed as depolarized cells after 24 hrs by JC-1 staining-based flow cytometric analysis (reference value: 27.1%). The class given is functional.
Test [14] deals with AGS. In words: Induction of apoptosis in TRAIL-resistant human AGS cells assessed as population of apoptotic cells after 6 hrs by annexin-V-FLOUS/ propidium iodide staining based flow cytometry. The format is functional.
In test [15] the test system is AGS. In words: Induction of apoptosis in TRAIL-resistant human AGS cells assessed as fold increase in caspase 3/7 at 5 uM after 24 hrs by Caspase-Glo 3/7 assay kit in presence of TRAIL. The format is functional.
In test [16] the test system is AGS. In words: Induction of apoptosis in TRAIL-resistant human AGS cells assessed as fold increase in caspase 3/7 at 3 uM after 24 hrs by Caspase-Glo 3/7 assay kit in presence of TRAIL. The class given is functional.
Test [17] has as its system AGS. In words: Induction of apoptosis in TRAIL-resistant human AGS cells assessed as fold increase in caspase 3/7 at 3 uM after 24 hrs by Caspase-Glo 3/7 assay kit. The format is functional.
Test [18] deals with AGS. Briefly: Induction of apoptosis in TRAIL-resistant human AGS cells assessed as ROS-mediated increase in death receptor 5 protein level at 3 uM after 6 hrs pretreated with NAC by Western blotting analysis. The class given is functional, cell-based.
Test [19] deals with AGS. In words: Induction of apoptosis in TRAIL-resistant human AGS cells assessed as decrease in cell viability at 17.5 uM after 24 hrs in presence of TRAIL (reference value: 9%). The class given is functional.

As for `CC(C)=CCc1c2c(c3oc(-c4cc(O)c(O)cc4O)c(CC=C(C)C)c(=O)c3c1O)C=CC(C)(C)O2`, the Activity with AGS [1] stood at 46%.

For `CC(C)=CCC/C(C)=C/Cc1c(O)c(CC=C(C)C)c(O)c2c(=O)c(CC=C(C)C)c(-c3cc(O)c(O)cc3O)oc12`, the Activity with AGS [2] came out at 30%.

`CC(C)=CCc1cc(/C=C/c2cc(O)cc(O)c2)cc(CC=C(C)C)c1O`: the Activity in the test on AGS [3] turned out to be 25%.

For the compound `COc1c(/C=C/c2cc(O)cc(O)c2)cc(CC=C(C)C)c(O)c1CC=C(C)C`, the Activity in the test on AGS [4] is 40%.

As for `CC(C)=CCc1c(O)c(CC=C(C)C)c2oc(-c3cc(O)c(O)cc3O)c(CC=C(C)C)c(=O)c2c1O`, in the test on AGS [5], the Activity came to 30%.

Regarding `C=C(C)[C@H]1Cc2c(oc3c4c(cc(O)c3c2=O)OC(C)(C)C=C4)-c2c(O)cc(O)c(O)c21` [ARTOBILOXANTHONE], in the test with AGS [6], the Activity was determined as 32%.

Turning to `CC(C)=CCc1c(-c2cc(O)c(O)cc2O)oc2c3c(cc(O)c2c1=O)OC(C)(C)C=C3` [ARTONIN E], in the test on AGS [7], the outcome was Active. In addition, the “inhibition (INH)” value came out at 2.9% in the test with AGS [8], 32.7% in the test with AGS [10] and 3.6% with AGS [14]. For the same compound, the “fold change (FC)” value stood at 1.9 in the test on AGS [9]; 11.1 in the test on AGS [12]; 34.3 in the test with AGS [15]; 12.2 in the test with AGS [16]; 3.7 in the test with AGS [17]. Besides, the Activity with AGS [11] was 44%; with AGS [13], 58.4%. The outcome with AGS [18] was inactive.

Turning to `C=C(C)[C@H]1Cc2c(oc3c(CC=C(C)C)c(O)c(CC=C(C)C)c(O)c3c2=O)-c2c(O)cc(O)c(O)c21` [ARTORIGIDIN A], the Activity in the test on AGS [5] is listed as 26%.

Take `CC(C)=CCc1c(-c2ccc(O)cc2O)oc2cc3c(c(O)c2c1=O)C=CC(C)(C)O3` [CUDRAFLAVONE B]: the Activity with AGS [4] was determined as 27%.

With `CC(C)=CCc1c(-c2cc(O)c(O)cc2O)oc2c(CC=C(C)C)c3c(c(O)c2c1=O)C=CC(C)(C)O3` [HETEROPHYLLIN], the Activity in the test on AGS [1] was 31%.

As for `O=c1cc(-c2ccc(O)c(O)c2)oc2cc(O)cc(O)c12` [LUTEOLIN], the Activity with AGS [19] was 9%.

Turning to `CC(C)=CCc1c(-c2ccc(O)cc2O)oc2c3c(cc(O)c2c1=O)OC(C)(C)C=C3` [MORUSIN], in the test with AGS [4], the Activity came out at 25%.
